Laboratory results published in the supplement of paper PMC10307832.

What was measured:
Test in all cases: relative viability (nuclei count vs DMSO), 5 days (fraction); higher = more cells survive
Imatinib = compound: Cc1ccc(NC(=O)c2ccc(CN3CCN(C)CC3)cc2)cc1Nc1nccc(-c2cccnc2)n1 [Imatinib]
Method in brief: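 In 1536-well plates, lung cancer cell lines rested overnight at 37 °C before five library-drug doses (not always all listed), √10 apart, were pinned onto vehicle-anchored plates. Nuclei were counted with MetaXpress from 4× Hoechst images taken after 5 days without medium change. Viability compares treated-well with vehicle-well nuclei as a median over plates, and plates needed control CV below 25% plus at least one doubling to pass.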

Imatinib + Dasatinib = compound: Cc1ccc(NC(=O)c2ccc(CN3CCN(C)CC3)cc2)cc1Nc1nccc(-c2cccnc2)n1 [Imatinib] + Cc1nc(Nc2ncc(C(=O)Nc3c(C)cccc3Cl)s2)cc(N2CCN(CCO)CC2)n1 [Dasatinib] (partner 0.075 µM)
Method in brief: (§1)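 Five library-drug doses in √10 steps were combined with a fixed anchor-drug dose, or a single drug was given alone, by pin tool to lung cancer cell lines in 1536-well plates the day after seeding. Nuclei were stained and counted after 5 days. Relative viability is the nuclei count in treated wells over that in vehicle wells, taken as the median of duplicate plates.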

Imatinib + Decitabine = compound: Cc1ccc(NC(=O)c2ccc(CN3CCN(C)CC3)cc2)cc1Nc1nccc(-c2cccnc2)n1 [Imatinib] + Nc1ncn([C@H]2C[C@H](O)[C@@H](CO)O2)c(=O)n1 [Decitabine] (partner 2 µM)
Method in brief: as §1

Imatinib + Bortezomib = compound: Cc1ccc(NC(=O)c2ccc(CN3CCN(C)CC3)cc2)cc1Nc1nccc(-c2cccnc2)n1 [Imatinib] + CC(C)C[C@H](NC(=O)[C@H](Cc1ccccc1)NC(=O)c1cnccn1)B(O)O [Bortezomib] (partner 0.002 µM)
Method in brief: as §1

Row | Cell Line | relative viability (Imatinib; 0.02 µM) | relative viability (Imatinib; 0.2 µM) | relative viability (Imatinib; 0.6325 µM) | relative viability (Imatinib; 2 µM) | relative viability (Imatinib + Dasatinib; first compound 0.02 µM) | relative viability (Imatinib + Dasatinib; first compound 0.2 µM) | relative viability (Imatinib + Dasatinib; first compound 0.6325 µM) | relative viability (Imatinib + Dasatinib; first compound 2 µM) | relative viability (Imatinib + Decitabine; first compound 0.02 µM) | relative viability (Imatinib + Decitabine; first compound 0.06325 µM) | relative viability (Imatinib + Decitabine; first compound 0.2 µM) | relative viability (Imatinib + Decitabine; first compound 0.6325 µM) | relative viability (Imatinib + Decitabine; first compound 2 µM) | relative viability (Imatinib + Bortezomib; first compound 0.02 µM) | relative viability (Imatinib + Bortezomib; first compound 0.2 µM) | relative viability (Imatinib + Bortezomib; first compound 2 µM) | relative viability (Imatinib + Bortezomib; first compound 0.6325 µM) | relative viability (Imatinib; 0.06325 µM) | relative viability (Imatinib + Bortezomib; first compound 0.06325 µM) | relative viability (Imatinib + Dasatinib; first compound 0.06325 µM)
1 | 201T | 1.01 | 1.02 | 0.997 | 0.965 | 0.594 | 0.625 | 0.61 | 0.496 | 0.855 | 0.8 | 0.841 | 0.852 | 0.843 | 1.08 | 1.13 | 1.06 |  |  |  | 
2 | A-427 | 1.04 | 0.989 | 0.974 | 0.969 |  | 0.798 | 0.805 | 0.714 | 0.588 | 0.536 | 0.558 | 0.558 | 0.562 | 1.11 | 1.11 | 0.853 | 1.05 |  |  | 
3 | ABC-1 | 1.11 | 1.07 | 0.888 | 0.634 | 0.624 | 0.689 | 0.522 | 0.523 | 1.22 |  | 0.909 | 1.15 | 1.06 | 0.311 | 0.282 | 0.348 | 0.235 |  |  | 
4 | BEN | 1.09 | 0.897 | 0.871 | 0.912 | 0.312 | 0.307 | 0.339 | 0.296 | 0.711 | 0.557 | 0.738 | 0.732 | 0.732 | 0.975 | 0.796 | 0.581 | 0.79 | 0.82 | 0.641 | 
5 | CAL-12T | 1.04 | 1.13 | 1.05 | 0.943 | 0.625 | 0.612 | 0.503 | 0.51 |  |  |  |  |  | 1.07 | 0.927 | 1.02 | 0.968 | 0.865 | 1.1 | 
6 | COR-L23 | 1.08 | 1.14 | 1.02 | 1.1 | 0.555 | 0.43 | 0.591 | 0.539 | 0.382 | 0.507 | 0.474 | 0.409 | 0.455 | 1.38 | 1.2 | 0.947 | 1.18 | 0.916 | 1.03 | 0.451
7 | COR-L 105 | 1.06 | 1 | 0.891 | 0.9 | 0.324 | 0.277 | 0.308 | 0.287 | 0.709 | 0.694 | 0.675 | 0.563 | 0.655 | 1.08 | 0.73 |  | 0.636 | 0.979 | 0.871 | 0.335
8 | ChaGo-K-1 | 1.02 | 1.01 |  | 0.949 | 0.58 | 0.522 | 0.515 | 0.579 | 0.525 |  | 0.534 | 0.503 | 0.503 | 0.975 | 1.01 |  | 1.15 | 0.794 | 1.37 | 0.51
9 | EBC-1 | 1.13 | 1.17 | 1.02 |  |  |  |  |  |  |  |  |  |  | 0.556 | 0.52 | 0.423 | 0.58 | 0.878 | 0.623 | 
10 | EKVX | 1.03 | 1 | 1.01 |  | 0.58 | 0.549 | 0.502 | 0.505 | 0.325 |  | 0.375 | 0.352 |  | 1.03 | 1.13 | 1.09 | 1.15 | 0.763 | 1.14 | 
11 | EMC-BAC-2 | 1.03 | 1.13 | 1.09 | 1.01 | 0.337 | 0.322 | 0.327 | 0.308 | 0.998 | 1.04 |  | 1.07 | 0.936 | 1.11 | 1.21 | 1.07 | 1.16 | 0.952 | 1.11 | 0.349
12 | EPLC-272H | 1.16 | 0.884 | 1.07 | 0.87 | 0.393 | 0.367 | 0.311 | 0.289 | 0.327 |  |  | 0.408 | 0.33 | 0.98 | 1.15 | 1.06 | 1.06 |  |  | 
13 | H3255 | 1.05 | 0.893 | 1.06 | 0.899 | 0.443 | 0.351 | 0.361 | 0.258 | 0.605 |  | 0.544 | 0.633 | 0.504 | 0.796 | 0.729 | 0.7 | 0.699 | 0.749 |  | 0.346
14 | HARA | 1.06 | 1.07 | 0.993 |  | 0.309 | 0.279 | 0.217 | 0.27 | 0.584 | 0.518 | 0.503 | 0.473 | 0.579 | 0.952 | 1.5 | 1.1 | 1.09 |  | 1.25 | 
15 | HCC-15 | 1.03 | 1.1 | 1.1 |  | 0.722 | 0.668 | 0.594 | 0.598 | 0.605 | 0.598 | 0.638 | 0.677 | 0.524 | 1.03 | 1.07 | 1.02 | 1.13 |  | 0.93 | 
16 | HCC-44 | 0.998 | 1.12 |  | 0.893 |  |  |  |  | 0.967 |  | 0.954 | 0.971 | 0.899 | 1.04 | 0.979 | 0.813 | 0.896 | 0.945 | 0.945 | 
17 | HCC-78 | 0.901 | 1.06 | 0.89 | 0.904 | 0.343 | 0.403 | 0.35 | 0.343 | 0.644 | 0.7 | 0.715 | 0.721 | 0.71 | 0.33 | 0.599 | 0.479 | 0.358 | 0.797 | 0.34 | 0.355
18 | HCC-366 | 0.978 | 1.06 | 1.07 | 0.988 | 0.805 | 0.822 | 0.648 | 0.584 | 0.324 | 0.366 | 0.356 | 0.374 | 0.329 | 1.46 | 1.5 | 0.929 | 1.07 | 0.856 |  | 
19 | HCC-827 |  |  | 1.05 | 1.03 | 0.287 | 0.239 | 0.151 | 0.272 | 0.31 | 0.32 | 0.311 | 0.36 | 0.307 |  | 1.04 |  | 1.02 | 1.04 | 1 | 0.269
